Earlier results in patent publication US7109171B2, “Methods for treating FSH related conditions with GnRH antagonists” (Praecis Pharmaceuticals Inc., priority 2000, dated 2006).
Square brackets hold non-standard residues; d marks the D form. Peptide text beside a SMILES is read from it. dPhe(4-Cl) = N[C@H](Cc1ccc(Cl)cc1)C(=O)O; d2Nal = N[C@H](Cc1ccc2ccccc2c1)C(=O)O; dCit = NC(=O)NCCC[C@@H](N)C(=O)O; d3Pal = N[C@H](Cc1cccnc1)C(=O)O

Tests used:
LH = conditions: in vivo
FSH = conditions: single bolus injection

Row | Compound | effect on LH levels (LH) | effect on FSH levels (FSH)
1 | CC(=O)N[C@H](Cc1ccc2ccccc2c1)C(=O)N[C@H](Cc1ccc(Cl)cc1)C(=O)N[C@H](Cc1cccnc1)C(=O)N[C@@H](CO)C(=O)N[C@@H](Cc1ccc(O)cc1)C(=O)N[C@H](CCCNC(N)=O)C(=O)N[C@@H](CC(C)C)C(=O)N[C@@H](CCCNC(=N)N)C(=O)N1CCC[C@H]1C(=O)N[C@H](C)C(N)=O [Cetrorelix] (Ac-[d2Nal][dPhe(4-Cl)][d3Pal]SY[dCit]LRP[dA]-NH2) | reduced | did not significantly affect
2 | Nal-Glu | reduced | did not significantly affect
